This note sets out measurements from patent publication US20120071475A1, “UREA DERIVATIVES HAVING PI3K-INHIBITING ACTIVITY” (SHIONOGI & CO., LTD., priority 2009, published 2012).

The target of one data set is T1, CYP3A4 (Homo sapiens, UniProt P08684).
T1 construct: host or cells: E. coli
Nature of the data set: CYP3A4 fluorescence MBI test. It counts as in vitro ADME. As to conditions: difference in IC50 with 0 or 30 minutes pre-reaction; CYP3A4 expressed in E. coli, substrate 7-BFC. The method in brief:
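E. coli-expressed CYP3A4 debenzylating 5.6 μmol/L 7-BFC to fluorescent 7-HFC (Ex 420/Em 535 nm) in K-Pi pH 7.4 at 25° C, 15 min reaction. NADPH pre-incubation of 0 or 30 min, with 10-fold dilution before reaction. IC50 from 0.625–20 μmol/L (6 points); (+) for an IC50 shift ≥5 μmol/L, (−) for ≤3 μmol/L.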

A further data set deals with PI3Kγ (Homo sapiens, UniProt P48736). Put plainly: PI3Kγ inhibitory activity (PI3-kinase HTRF assay, inhibition ratio). It counts as biochemical. As to conditions: 0.5 h, compound at 10 μmol/L; read-out: PI3Kg Inhibition Ratio % (10 μM). The method in brief:
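Compound at 10 μmol/L preincubated 10 min with PI3Kγ and PIP2 substrate, then reacted with ATP for 30 minutes at room temperature; the compound, substrate and ATP figures as printed (40 μmol/L each) are solution concentrations. HTRF 665/620 nm ratio read after 18 hours. Inhibition ratio calculated against no-compound (100%) and no-enzyme (0%) controls.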
On the technique in general: TR-FRET usually uses a lanthanide donor and a delayed reading to cut background.

In data set [1] the test system is CYP1A2, CYP2C9, CYP2C19, CYP2D6 and CYP3A4 (one value for the five species). Put plainly: CYP inhibition test, five CYP species together (5CYPs_IC50; pooled human liver microsome). It counts as in vitro ADME. The text has this: O-de-ethylation of 7-ethoxyresorufin (CYP1A2), methyl-hydroxylation of tolbutamide (CYP2C9), 4′-hydroxylation of mephenyloin (CYP2C19), O-demethylation of dextromethorphan (CYP2D6), and hydroxylation of terfenadine (CYP3A4), which are typical substrate for metabolic reactions of human main CYP5 molecular species (CYP1A2, 2C9, 2C19, 2D6, and 3A4), were adopted as indexes.
The reaction conditions are as follows: substrate: 0.5 μmol/L of ethoxyresorufin (CYP1A2), 100 μmol/L of tolbutamide (CYP2C9), 50 μmol/L of S-mephenyloin (CYP2C19), 5 μmol/L of dextromethorphan (CYP2D6), and 1 μmol/L of terfenadine (CYP3A4); reaction time; 15 minutes; reaction temperature: 37° C.; enzyme: pooled human liver microsome 0.2 mg protein/mL; test drug concentration: 1, 5, 10, and 20 μmol/L (4 points).
In a 96-well plate, as a reaction solution, five kinds of substrates, a human liver microsome, and a test drug were added to 50 mmol/L Hepes buffer solution in the aforementioned ratio. A coenzyme NADPH was added to start a metabolic reaction, which is an index. After reacting at 37° C. for 15 minutes, a solution of methanol/acetonitrile (1/1 (v/v)) was added to quench the reaction. After centrifugation at 3000 rpm for 15 minutes, resorufin (CYP1A2 metabolite) in the supernatant was quantitated with a fluorescence multilabel counter, and hydroxylated tolbutamide (CYP2C9 metabolite), 4′-hydroxylated mephenyloin (CYP2C19 metabolite), […], terfenadine in alcohol form (CYP3A4 metabolite) were quantitated with LC/MS/MS.
The case wherein only DMSO (a solvent which dissolved a drug) was added to a reaction system was defined as a control (100%). When a test drug solution was added, the remaining activity (%) at each concentration was calculated, and then IC50 was calculated with a concentration and an inhibition ratio by an inverse estimation using a logistic model.

The nature of data set [2]: Metabolic stability test (pooled human liver microsome). It counts as in vitro ADME. As to conditions: percentage of test compound remained after 30 minutes, pooled human liver microsome 0.5 mg protein/mL, 1 mmol/L NADPH, 37° C., compound 0.5 μM. The method in brief:
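Pooled human liver microsomes (0.5 mg protein/mL) incubated with compound and 1 mmol/L NADPH at 37° C. in pH 7.4 Tris buffer for 0 or 30 min. Parent quantified by LC/MS/MS after methanol/acetonitrile quench; value is % remaining at 30 min versus 0 min.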

The target of a further data set is T2, hERG channel (IKr) (Homo sapiens, UniProt Q12809).
T2 construct: expressed in transfected cells; host or cells: HEK293
T2 sequence (Q12809 whole entry): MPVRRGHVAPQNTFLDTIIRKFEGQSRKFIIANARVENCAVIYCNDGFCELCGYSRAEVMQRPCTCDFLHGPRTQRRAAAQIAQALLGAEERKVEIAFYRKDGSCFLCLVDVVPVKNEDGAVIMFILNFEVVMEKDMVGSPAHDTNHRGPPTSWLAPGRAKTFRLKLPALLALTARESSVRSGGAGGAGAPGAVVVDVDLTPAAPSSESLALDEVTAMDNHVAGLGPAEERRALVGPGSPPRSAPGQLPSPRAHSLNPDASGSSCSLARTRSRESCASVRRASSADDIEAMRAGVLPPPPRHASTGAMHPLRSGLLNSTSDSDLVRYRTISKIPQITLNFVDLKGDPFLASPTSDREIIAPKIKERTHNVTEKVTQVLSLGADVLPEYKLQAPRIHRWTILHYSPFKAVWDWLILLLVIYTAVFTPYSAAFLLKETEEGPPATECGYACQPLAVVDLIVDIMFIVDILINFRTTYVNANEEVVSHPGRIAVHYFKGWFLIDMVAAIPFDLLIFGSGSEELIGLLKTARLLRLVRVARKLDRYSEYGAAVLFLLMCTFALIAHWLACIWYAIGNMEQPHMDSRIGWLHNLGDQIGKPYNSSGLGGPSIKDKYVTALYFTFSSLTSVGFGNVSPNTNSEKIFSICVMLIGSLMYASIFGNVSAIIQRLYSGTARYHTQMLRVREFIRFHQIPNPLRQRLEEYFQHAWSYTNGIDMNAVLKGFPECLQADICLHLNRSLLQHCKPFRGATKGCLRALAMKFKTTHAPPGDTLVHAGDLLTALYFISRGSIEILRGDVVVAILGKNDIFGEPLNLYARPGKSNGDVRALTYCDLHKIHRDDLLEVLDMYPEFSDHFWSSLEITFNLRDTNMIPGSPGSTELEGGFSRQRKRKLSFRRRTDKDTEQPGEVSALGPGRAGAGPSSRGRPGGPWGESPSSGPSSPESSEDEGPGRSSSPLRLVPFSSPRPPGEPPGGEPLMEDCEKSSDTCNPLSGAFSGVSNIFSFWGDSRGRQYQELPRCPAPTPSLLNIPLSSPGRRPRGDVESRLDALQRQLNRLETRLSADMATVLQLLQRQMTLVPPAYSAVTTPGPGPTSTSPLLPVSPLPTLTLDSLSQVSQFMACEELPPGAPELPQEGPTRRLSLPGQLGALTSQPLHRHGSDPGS
Put plainly: hERG test (whole-cell patch-clamp, IKr in HEK293 cells). It counts as cell-based. The following applies: human, HEK293 cells expressing hERG channel, pH 7.4, inhibition of maximum tail current (IKr), compound 1 μM. The method in brief:
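hERG-expressing HEK293 cells, automated whole-cell patch clamp: hold −80 mV, +50 mV for 2 s, then −50 mV for 2 s to record IKr tail current. Compound in extracellular solution (pH 7.4) for 10 min at room temperature; inhibition of maximum tail current calculated versus pre-application and compared with 0.1% DMSO vehicle.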

Where two headings read alike, the source gives them in different places. A value given as a limit tells only on which side of the number the result lay.

T1 sequence (P08684 whole entry): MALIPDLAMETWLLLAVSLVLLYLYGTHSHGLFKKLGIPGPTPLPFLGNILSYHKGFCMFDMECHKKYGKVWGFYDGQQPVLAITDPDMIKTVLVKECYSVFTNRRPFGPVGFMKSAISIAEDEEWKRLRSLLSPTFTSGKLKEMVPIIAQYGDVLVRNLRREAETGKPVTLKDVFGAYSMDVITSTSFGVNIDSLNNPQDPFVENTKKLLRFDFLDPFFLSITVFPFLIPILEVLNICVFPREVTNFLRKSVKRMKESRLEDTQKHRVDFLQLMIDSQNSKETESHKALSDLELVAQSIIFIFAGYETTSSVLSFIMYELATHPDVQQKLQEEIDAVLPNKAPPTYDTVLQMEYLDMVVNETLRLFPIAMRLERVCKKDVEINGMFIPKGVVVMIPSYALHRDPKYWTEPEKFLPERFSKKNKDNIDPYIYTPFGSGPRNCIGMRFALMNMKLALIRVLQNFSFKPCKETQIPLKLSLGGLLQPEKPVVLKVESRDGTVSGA
PI3Kγ, sequence (P48736 whole entry, species assumed): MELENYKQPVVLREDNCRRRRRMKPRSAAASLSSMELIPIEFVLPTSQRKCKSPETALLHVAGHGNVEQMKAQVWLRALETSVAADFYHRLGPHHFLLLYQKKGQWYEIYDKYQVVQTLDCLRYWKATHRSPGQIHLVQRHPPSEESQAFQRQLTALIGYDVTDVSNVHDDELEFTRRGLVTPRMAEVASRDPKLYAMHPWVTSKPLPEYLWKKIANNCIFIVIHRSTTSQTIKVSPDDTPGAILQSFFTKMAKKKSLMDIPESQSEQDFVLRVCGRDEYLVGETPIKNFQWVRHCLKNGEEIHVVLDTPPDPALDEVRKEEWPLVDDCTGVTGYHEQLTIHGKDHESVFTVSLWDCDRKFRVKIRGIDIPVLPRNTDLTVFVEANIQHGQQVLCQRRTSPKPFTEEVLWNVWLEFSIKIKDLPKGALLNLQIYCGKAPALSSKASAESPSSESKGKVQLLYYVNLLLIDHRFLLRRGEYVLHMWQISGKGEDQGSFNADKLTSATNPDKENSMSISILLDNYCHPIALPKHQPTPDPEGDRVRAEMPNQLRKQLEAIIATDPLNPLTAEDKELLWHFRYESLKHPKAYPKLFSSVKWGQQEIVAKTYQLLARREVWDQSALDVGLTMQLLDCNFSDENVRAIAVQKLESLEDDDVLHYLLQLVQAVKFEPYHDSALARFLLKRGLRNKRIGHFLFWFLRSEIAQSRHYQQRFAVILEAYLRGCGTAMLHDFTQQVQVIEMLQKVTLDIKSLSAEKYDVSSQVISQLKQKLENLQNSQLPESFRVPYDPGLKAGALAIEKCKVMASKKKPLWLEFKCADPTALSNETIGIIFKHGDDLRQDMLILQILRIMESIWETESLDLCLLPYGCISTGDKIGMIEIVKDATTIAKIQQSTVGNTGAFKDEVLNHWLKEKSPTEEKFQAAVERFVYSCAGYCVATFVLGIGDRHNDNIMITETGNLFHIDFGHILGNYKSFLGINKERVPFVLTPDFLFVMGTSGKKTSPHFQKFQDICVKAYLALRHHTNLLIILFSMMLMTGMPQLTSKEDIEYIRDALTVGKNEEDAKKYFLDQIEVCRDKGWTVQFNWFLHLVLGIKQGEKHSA

As to `COc1cc(N2CCc3nc(NC(=O)Nc4ccccc4C(=O)O)sc3C2)nc(OC)n1.Cl.Cl` [Compound I-5], the MBI result at CYP3A4 is listed as “(−) (When 3 μmol/L or less, the compound is shown as (−))”. Besides, the inhibition at 10 µM at PI3Kγ is 85%. In data set [1] (pooled human liver microsomes, one value for five species (CYP1A2, 2C9, 2C19, 2D6, 3A4), pooled human liver microsome 0.2 mg protein/mL, 15 minutes, 37° C., test drug 1-20 μmol/L, read-out: 5CYPs_IC50), the IC50 at 15 min is not below 10 µM.

Consider `COc1cc(N2CCc3nc(NC(=O)Nc4ccccc4C(C)=O)sc3C2)nc(OC)n1` [Compound I-9], for which, at CYP3A4, the MBI entry was “(−) (When 3 μmol/L or less, the compound is shown as (−))”. In addition, the inhibition at 10 µM on PI3Kγ is 93%. This compound registered an IC50 at 15 min in data set [1] (human, microsomes) not below 10 µM.

In data set [1] (human, microsomes), `COc1ccc(N2CCc3nc(NC(=O)Nc4ccccc4C(=O)NC(C)C)sc3C2)cn1` [Compound I-50] showed an IC50 at 15 min not below 10 µM.

For `COc1cc(C2CCc3nc(NC(=O)Nc4ccccc4C(=O)NC(C)C)sc3C2)nc(OC)n1` (stereo not drawn) [Compound I-60], the “hLMS_ox(at 0.5 μM) %” value in data set [2] worked out at 81.9%. The same compound registered an inhibition at 10 min, 1 µM on hERG channel (IKr) of 3.6%. Besides, the inhibition at 10 µM at PI3Kγ was not below 95%. For the same compound, the IC50 at 15 min in data set [1] (human, microsomes) was more than 20 µM.

Consider `COc1cc(N2CCc3nc(NC(=O)Nc4ccccc4C(=O)NC(C)C)sc3C2)cc(OC)n1` [Compound I-63], for which, in data set [2], the “hLMS_ox(at 0.5 μM) %” value was determined as 80.1%. The compound further had an inhibition at 10 min, 1 µM against hERG channel (IKr) of 2.7%. For the same compound, on PI3Kγ, the inhibition at 10 µM was not below 95%. In data set [1] (human, microsomes), this compound gave an IC50 at 15 min of more than 20 µM.

For the compound `COc1cc(N2CCc3nc(NC(=O)Nc4ccccc4C(=O)C(C)C)sc3C2)nc(OC)n1` [Compound I-64], the IC50 at 15 min in data set [1] (human, microsomes) was not below 10 µM.

Regarding `COc1cncc(C2CCc3nc(NC(=O)Nc4ccccc4C(=O)NC(C)C)sc3C2)c1` (stereo not drawn) [Compound I-81], the MBI entry at CYP3A4 is “(−) (When 3 μmol/L or less, the compound is shown as (−))”. The compound further displayed an IC50 at 15 min in data set [1] (human, microsomes) of more than 20 µM.

As to `COCCNC(=O)c1ccccc1NC(=O)Nc1nc2c(s1)CN(c1cc(OC)nc(OC)n1)CC2` [Compound I-86], at CYP3A4, the MBI result is given as “(−) (When 3 μmol/L or less, the compound is shown as (−))”. Moreover, the inhibition at 10 µM at PI3Kγ is not below 95%. The compound also returned an IC50 at 15 min in data set [1] (human, microsomes) not below 10 µM.

`COc1cc(N2CCc3nc(NC(=O)Nc4ccccc4C(=O)NCCC#N)sc3C2)nc(OC)n1` [Compound I-89]: in data set [2], the “hLMS_ox(at 0.5 μM) %” value is listed as 93.6%. For the same compound, the MBI entry on CYP3A4 is on record as “(−) (When 3 μmol/L or less, the compound is shown as (−))”. The inhibition at 10 µM at PI3Kγ was not below 95%. The compound also registered an IC50 at 15 min in data set [1] (human, microsomes) not below 10 µM.

Take `COc1cc(N2CCc3nc(NC(=O)Nc4ccccc4C(=O)NCC#N)sc3C2)nc(OC)n1` [Compound I-90]: the “hLMS_ox(at 0.5 μM) %” value in data set [2] came out at 83.4%. Moreover, at CYP3A4, the MBI result is “(−) (When 3 μmol/L or less, the compound is shown as (−))”. Moreover, the IC50 at 15 min in data set [1] (human, microsomes) is not below 10 µM.

For `COc1cc(N2CCc3nc(NC(=O)Nc4ccc(F)cc4C(=O)NC(C)C)sc3C2)cnc1OC` [Compound I-105], the IC50 at 15 min in data set [1] (human, microsomes) was not below 10 µM.

In the case of `COc1cc(N2CCc3nc(NC(=O)Nc4cn(C)nc4C(=O)NC(C)C)sc3C2)nc(OC)n1` [Compound I-106], the “hLMS_ox(at 0.5 μM) %” value in data set [2] is 83.9%. In data set [1] (human, microsomes), this compound returned an IC50 at 15 min not below 10 µM.

For `CC(C)NC(=O)c1ccccc1NC(=O)Nc1nc2c(s1)CN(c1cncc(S(=O)(=O)N(C)C)c1)CC2` [Compound I-108], the MBI entry at CYP3A4 was “(−) (When 3 μmol/L or less, the compound is shown as (−))”. In data set [1] (human, microsomes), this compound returned an IC50 at 15 min of more than 20 µM.

For the compound `CC(CO)NC(=O)c1ccccc1NC(=O)Nc1nc2c(s1)CN(c1cccc(F)c1)CC2` (stereo not drawn) [Compound I-115], in data set [2], the “hLMS_ox(at 0.5 μM) %” value worked out at 84.7%. Besides, the inhibition at 10 µM on PI3Kγ was not below 95%. This compound returned an IC50 at 15 min in data set [1] (human, microsomes) not below 10 µM.

In turn, `COc1cc(N2CCc3nc(NC(=O)Nc4ccccc4C(O)CCC(C)C)sc3C2)nc(OC)n1` (stereo not drawn) [Compound I-117] gave an IC50 at 15 min in data set [1] (human, microsomes) of more than 20 µM.

As for `Cc1cc(N2CCc3nc(NC(=O)Nc4ccccc4C(=O)NCC#N)sc3C2)nc(Cl)n1` [Compound I-172], the “hLMS_ox(at 0.5 μM) %” value in data set [2] is 98%. Moreover, the MBI entry on CYP3A4 is reported as “(−) (When 3 μmol/L or less, the compound is shown as (−))”. In addition, the inhibition at 10 µM at PI3Kγ was not below 95%. The compound also showed an IC50 at 15 min in data set [1] (human, microsomes) not below 10 µM.

On to `O=C(Nc1nc2c(s1)CN(c1cncc(C(F)(F)F)c1)CC2)Nc1ccccc1C(=O)NC(CO)CO` [Compound I-173], for which the MBI result on CYP3A4 is “(−) (When 3 μmol/L or less, the compound is shown as (−))”. Besides, the inhibition at 10 µM on PI3Kγ was 71%. The compound also came in with an IC50 at 15 min in data set [1] (human, microsomes) not below 10 µM.

With `CC(C)NC(=O)c1ccccc1NC(=O)Nc1nc2c(s1)CN(c1ccc(S(C)(=O)=O)cc1)CC2` [Compound I-204], the MBI entry at CYP3A4 is listed as “(−) (When 3 μmol/L or less, the compound is shown as (−))”. Further, the inhibition at 10 µM at PI3Kγ was not below 95%. This compound yielded an IC50 at 15 min in data set [1] (human, microsomes) of more than 20 µM.

`CC(C)NC(=O)c1ccccc1NC(=O)Nc1nc2c(s1)CN(c1ccc(C(F)(F)F)cc1)CC2` [Compound I-208] registered an IC50 at 15 min in data set [1] (human, microsomes) of more than 20 µM.

`CC(C)NC(=O)c1ccccc1NC(=O)Nc1nc2c(s1)CN(c1ccc(C#N)cc1)CC2` [Compound I-209]: the MBI result on CYP3A4 is “(−) (When 3 μmol/L or less, the compound is shown as (−))”. Moreover, at PI3Kγ, the inhibition at 10 µM is not below 95%. For the same compound, the IC50 at 15 min in data set [1] (human, microsomes) was not below 10 µM.

On to `CC(=O)c1cccc(-c2ccc3nc(NC(=O)Nc4ccccc4OCCC(C)C)sc3n2)c1` [Compound I-219], for which the inhibition at 10 µM at PI3Kγ is not below 95%. The compound also showed an IC50 at 15 min in data set [1] (human, microsomes) not below 10 µM.

`CC(=O)c1cccc(-c2ccc3nc(NC(=O)Nc4ccccc4N4CCCC4=O)nn3c2)c1` [Compound I-224] gave an IC50 at 15 min in data set [1] (human, microsomes) not below 10 µM.
